# Reference: paper PMC3199943, “Screening the MayBridge Rule of 3 Fragment Library for Compounds That Interact with the Trypanosoma brucei myo-Inositol-3-Phosphate Synthase and/or Show Trypanocidal Activity” (Molecular Biology International, 2011)
# Like-named read-outs stand apart in the source and are kept apart here.
# Assays:
# TbINO1 = biological target: T1, TbINO1 (Trypanosoma brucei brucei, UniProt Q5QQ46); experiment: biochemical; assay type: binding; details: for Tb Ino1 Tm Shift [˚C]: Supplementary Table 1, compound 1mM, mean ± SD from Boltzman curve fitting
# T1 sequence (Q5QQ46 1-528): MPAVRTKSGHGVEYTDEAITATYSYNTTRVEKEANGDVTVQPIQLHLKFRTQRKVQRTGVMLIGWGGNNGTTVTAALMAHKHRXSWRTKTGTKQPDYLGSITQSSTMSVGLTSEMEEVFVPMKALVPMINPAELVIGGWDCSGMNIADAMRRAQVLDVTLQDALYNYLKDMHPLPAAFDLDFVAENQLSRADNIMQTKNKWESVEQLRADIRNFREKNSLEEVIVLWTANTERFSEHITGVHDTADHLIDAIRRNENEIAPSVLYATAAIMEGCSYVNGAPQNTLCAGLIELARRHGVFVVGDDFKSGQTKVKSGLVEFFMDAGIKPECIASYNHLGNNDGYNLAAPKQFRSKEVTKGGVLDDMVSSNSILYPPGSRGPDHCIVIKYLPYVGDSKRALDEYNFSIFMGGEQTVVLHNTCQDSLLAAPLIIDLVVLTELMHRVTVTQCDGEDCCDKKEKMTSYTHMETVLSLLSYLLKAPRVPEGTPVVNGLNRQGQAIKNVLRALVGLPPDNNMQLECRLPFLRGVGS
# HeLa cells = experiment: cells; details: for viability at 500 µM: 65 h; for HeLa Cells Alamar Blue: Supplementary Table 1, compound 0.5 mM, percentage of controls, mean ± SD (n=3) or SE (n=2)
# Outline: (§1)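 HeLa and A549 cells grown in DMEM with 10% FCS and 2 mM L-Glutamine were seeded at 2 × 10^4 cells/well. They were exposed to compounds for ~65 hours, then Alamar Blue was added for a further 5 hours to measure viability.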
# A549 cells = experiment: Cytotoxicity against A549 cells, Alamar Blue; assay type: cell-based; details: Supplementary Table 1, compound 0.5 mM, percentage of controls (n=1); for viability at 500 µM: Homo sapiens, A549, 65 h
# Outline: as §1
# [1] = read-out: Tb Ino1 Tm Shift [˚C]
# [2] = Homo sapiens, HeLa, read-out: HeLa Cells Alamar Blue
# [3] = Homo sapiens, HeLa, read-out: HeLa Cells Alamar Blue (% survival)
Structure (SMILES),ΔTm at 1000 µM (TbINO1; [1]) [°C],viability at 500 µM (HeLa cells; [2]) [%],viability at 500 µM (A549 cells) [%],further results
"Nc1ccccc1CN1CCOCC1 [compound 570, 2‐(morpholin‐4‐ylmethyl)aniline]",0.35 ± 0.05,93.2 ± 17.1,104,
"NCc1ccccc1N1CCOCC1 [compound 571, 2‐morpholinobenzylamine]",0.06 ± 0.07,95 ± 17.5,70.9,
"OCc1cccnc1N1CCCCC1 [compound 572, (2‐piperidino‐3‐pyridinyl)methanol]",1.25 ± 0.09,65.1 ± 5.7,80.1,
"c1ccc(Sc2ccsc2)cc1 [compound 574, 3‐(phenylthio)thiophene]",0.11 ± 0.07,98.8 ± 18.5,93.9,
"COc1c(C(=O)O)csc1Cl [compound 575, 5‐chloro‐4‐methoxythiophene‐3‐carboxylic acid]",,,,Tb Ino1 Tm Shift [˚C] (TbINO1): 1.07 ± 0.08 °C; HeLa Cells Alamar Blue (HeLa cells): 90.5 ± 15.4 percentage of controls; A549 Cells Alamar Blue (A549 cells): 91.2 percentage of controls
"O=C(O)c1sccc1-n1cccc1 [compound 577, 3-(1H-pyrrol-1-yl)thiophene-2-carboxylic acid]",,103 ± 2.8,90.4,"ΔTm at 1000 µM (TbINO1; read-out: TbIno1 Tm shift [°C]): 2.78 ± 0.08 °C; viability at 500 µM (HeLa cells; [3]): 103 ± 2.8%; CC50 (HeLa cells; Homo sapiens, HeLa, read-out: HeLa ED50): > 20 mM"
"OCc1ccc(N2CCOCC2)cc1 [compound 578, (4‐morpholin‐4‐yl‐phenyl)‐methanol]",0.17 ± 0.08,42.3 ± 9,75.4,
"OCc1cccc(N2CCOCC2)c1 [compound 579, (3‐morpholinophenyl)methanol]",0.18 ± 0.08,100 ± 13.5,101,
"OCc1ccccc1N1CCOCC1 [compound 580, (2‐morpholinophenyl)methanol]",0.34 ± 0.06,91.3 ± 16,123,
"CN1CCc2c(sc(N)c2C#N)C1 [compound 581, 2‐amino‐6‐methyl‐4,5,6,7‐tetrahydrothieno[2,3‐c]pyridine‐3‐carbonitrile]",,,,Tb Ino1 Tm Shift [˚C] (TbINO1): 1.39 ± 0.08 °C; HeLa Cells Alamar Blue (HeLa cells): 85.8 ± 12.8 percentage of controls; A549 Cells Alamar Blue (A549 cells): 82.2 percentage of controls
"Cc1cc(C(=O)O)c(C(F)(F)F)o1 [compound 583, 5‐methyl‐2‐(trifluoromethyl)‐3‐furoic acid]",0.06 ± 0.07,86.1 ± 15.8,59.6,
"Cn1nc(-c2cccs2)cc1CO [compound 587, (1‐methyl‐3‐thien‐2‐yl‐1H‐pyrazol‐5‐yl)methanol]",,,,Tb Ino1 Tm Shift [˚C] (TbINO1): 0.36 ± 0.07 °C; HeLa Cells Alamar Blue (HeLa cells): 91.6 ± 8.8 percentage of controls; A549 Cells Alamar Blue (A549 cells): 65.8 percentage of controls
"CC(=O)c1cc(Cl)sc1Cl [compound 590, 1‐(2,5‐dichloro‐3‐thienyl)ethan‐1‐one]",0.3 ± 0.07,97.7 ± 13.9,130,
"N#Cc1ccccc1Oc1ccccc1 [compound 591, 2‐phenoxybenzonitrile]",0.24 ± 0.06,93 ± 2.5,58.3,
"NC(=S)c1cccc2c1OCCO2 [compound 592, 2,3‐dihydro‐1,4‐benzodioxine‐5‐carbothioamide]",,,,Tb Ino1 Tm Shift [˚C] (TbINO1): 0.18 ± 0.07 °C; HeLa Cells Alamar Blue (HeLa cells): 54.3 ± 15.7 percentage of controls; A549 Cells Alamar Blue (A549 cells): 39.8 percentage of controls
"CN(C)CCOc1ccccc1CO [compound 593, {2‐[2‐(dimethylamino)ethoxy]phenyl}methanol]",,,,Tb Ino1 Tm Shift [˚C] (TbINO1): 0.13 ± 0.06 °C; HeLa Cells Alamar Blue (HeLa cells): 77.9 ± 13.5 percentage of controls; A549 Cells Alamar Blue (A549 cells): 59.2 percentage of controls
"CCOC(=O)c1[nH]c(C)c(CC)c1C [compound 594, ethyl 4‐ethyl‐3,5‐dimethyl‐1H‐pyrrole‐2‐carboxylate]",,,,Tb Ino1 Tm Shift [˚C] (TbINO1): 0.17 ± 0.08 °C; HeLa Cells Alamar Blue (HeLa cells): 79.8 ± 6.6 percentage of controls; A549 Cells Alamar Blue (A549 cells): 59.9 percentage of controls

Structure (SMILES),ΔTm at 1000 µM (TbINO1; [1]) [°C],viability at 500 µM (HeLa cells; [2]) [%],viability at 500 µM (A549 cells) [%],further results
"N#Cc1ccc(Oc2ccccn2)cc1 [compound 596, 4‐(pyridin‐2‐yloxy)benzonitrile]",0.68 ± 0.07,97.7 ± 11,72.1,
"O=C(O)C12CC3CC(CC(O)(C3)C1)C2 [compound 597, 3‐hydroxyadamantane‐1‐carboxylic acid]",0.29 ± 0.06,75.2 ± 12.6,79.4,
"OCc1ccc(-c2cccs2)s1 [compound 598, 2,2′-bithien-5-ylmethanol]",,78 ± 11.6,86.3,ΔTm at 1000 µM (TbINO1; read-out: TbIno1 Tm shift [°C]): 1.72 ± 0.06 °C; viability at 500 µM (HeLa cells; [3]): 78 ± 11.6%
"NCc1csc(-c2cccs2)n1 [compound 599, [2‐(2‐thienyl)‐1,3‐thiazol‐4‐yl]methylamine]",,,,Tb Ino1 Tm Shift [˚C] (TbINO1): 0.41 ± 0.06 °C; HeLa Cells Alamar Blue (HeLa cells): 71.9 ± 7.1 percentage of controls; A549 Cells Alamar Blue (A549 cells): 98.4 percentage of controls
"O=c1c2ccccc2oc2ncccc12 [compound 600, 5H‐chromeno[2,3‐b]pyridin‐5‐one]",0.62 ± 0.05,78.4 ± 11,126,
"Nc1cccc(C(=O)c2ccccc2)c1 [compound 601, (3‐aminophenyl)(phenyl)methanone]",0.21 ± 0.06,89.2 ± 6.6,63.8,
"O=C(O)c1nsc(Cl)c1Cl [compound 602, 4,5‐dichloroisothiazole‐3‐carboxylic acid]",0.1 ± 0.07,83.2 ± 12.5,68.2,
"O=C(Nc1ccncc1)c1ccccc1 [compound 603, N1‐(4‐pyridyl)benzamide]",0.32 ± 0.07,79 ± 15.1,57.3,
"CC(=O)c1ccc(S(C)(=O)=O)cc1 [compound 604, 1‐[4‐(methylsulfonyl)phenyl]ethan‐1‐one]",0.18 ± 0.06,83.1 ± 19.6,63.9,
"CNCc1cccc(-c2ccncc2)c1 [compound 605, N‐methyl‐N‐(3‐pyridin‐4‐ylbenzyl)amine]",0.05 ± 0.07,21.3 ± 13.8,36.2,
"CNCc1cccc(-c2cccnc2)c1 [compound 606, N‐methyl‐N‐(3‐pyridin‐3‐ylbenzyl)amine]",0.07 ± 0.08,70.8 ± 5.8,69.8,
"CNCc1ccc(-c2ccccn2)cc1 [compound 607, N‐methyl‐N‐(4‐pyridin‐2‐ylbenzyl)amine]",0.02 ± 0.06,57.7 ± 17.1,71.5,
"O=C1CCSc2ccc(Cl)cc21 [compound 609, 6-chloro-3,4-dihydro-2H-1-benzothiin-4-one]",,74.5 ± 13.7,105,ΔTm at 1000 µM (TbINO1; read-out: TbIno1 Tm shift [°C]): 2.49 ± 0.04 °C; viability at 500 µM (HeLa cells; [3]): 74.5 ± 13.7%
"O=C(O)c1ccc(-c2ccccc2)nc1 [compound 610, 6‐phenylnicotinic acid]",0.46 ± 0.06,82.3 ± 8.2,125,
"O=C(O)c1cccc(-c2ccccn2)c1 [compound 611, 3‐pyrid‐2‐ylbenzoic acid]",0.19 ± 0.07,87 ± 12.6,73.9,
"O=C(O)c1ccccc1-c1cccnc1 [compound 613, 2‐pyrid‐3‐ylbenzoic acid]",0.14 ± 0.07,80 ± 5.6,59.8,
